The source of these data is patent publication US11413360B2, “Dual mode radiotracer and—therapeutics” (priority 2017, dated 2022).

Like-named read-outs stand apart in the source and are kept apart here.

A short description of series [1]: Octanol-water partition coefficient (log D) of radiolabelled ligands. The settings on record: n = 6. Type of series: physicochemical. The protocol:
Approximately 1 MBq of the labelled tracer was dissolved in 1 mL of a 1:1 mixture (by volumes) of phosphate buffered saline (PBS, pH 7.4) and n-octanol in an Eppendorf tube. After vigorous mixing of the suspension for 3 minutes at room temperature, the vial was centrifuged at 15000 g for 3 minutes (Biofuge 15, Heraus Sepatech, Osterode, Germany) and 100 μL aliquots of both layers were measured in a gamma counter. The experiment was repeated at least six times.

A further series relates to LNCaP cells. Nature of the series: Internalization of radiolabelled ligands into LNCaP cells. Type of series: cell-based. Conditions: 1 hour, % of reference ligand ([125I]I-BA)KuE. The method, then:
Subsequent to the removal of the culture medium, the cells were washed once with 500 μL DMEM-F12 (5% BSA) and left to equilibrate for at least 15 min at 37° C. in 200 μL DMEM-F12 (5% BSA). Each well was treated with either 25 μL of either DMEM-F12 (5% BSA) or a 100 μM PMPA solution for blockade. […] The experiment was terminated by placing the 24-well plate on ice for 3 min and consecutive removal of the medium. Each well was rinsed with 250 μL HBSS and the fractions from these first two steps combined, representing the amount of free radioligand. Removal of surface bound activity was accomplished by incubation of the cells with 250 μL of ice-cold PMPA (10 μM in PBS) solution for 5 min and rinsed again with another 250 μL of ice-cold PBS. The internalized activity was determined by incubation of the cells in 250 μL 1 M NaOH and the combination with the fraction of a subsequent wash step with 250 μL 1.0 M NaOH. Each experiment (control and blockade) was performed in triplicate. Free, surface bound and internalized activity was quantified in a γ-counter. […] Data were corrected for non-specific internalization and normalized to the specific-internalization observed for the radioiodinated reference compound.

A further series concerns the target T1, PSMA (Homo sapiens, UniProt Q04609).
T1 construct: endogenous in cells; host or cells: LNCaP cells
Nature of the series: Determination of PSMA affinity (IC50), competition with ([125I]I-BA)KuE on LNCaP cells. Type of series: binding. Conditions: ([125I]I-BA)KuE 0.2 nM. The method, then:
After removal of the culture medium, the cells were treated once with 500 μL of HBSS (Hank's balanced salt solution, Biochrom, Berlin, Germany, with addition of 1% bovine serum albumin (BSA)) and left 15 min on ice for equilibration in 200 μL HBSS (1% BSA). […] Quantification of bound and free radioligand was accomplished in a γ-counter.

The target in series [2] is T2, Human Serum Albumin (Homo sapiens, UniProt P02768). Nature of the series: Literature HSA binding of reference substances (Yamazaki et al.) for HSA-column calibration. Conditions: logarithmic K of human serum albumin binding. The protocol: The mobile phase (A: NH4OAc, 50 mM in water, pH 7 and B: isopropanol) was freshly prepared for each experiment and only used for one day. The column was kept at room temperature and each run was stopped after detection of the signal to reduce the acquisition time. All substances were dissolved in a 0.5 mg/ml concentration in 50% 2-propanol and 50% 50 mM pH 6.9 ammonium acetate buffer. […] All nine reference substances (see Table 1) were injected consecutively to establish a non-linear regression with OriginPro 2016G; see FIG. 1.
HSA literature value of human serum albumin binding in [%]; Log K HAS logarithmic K of human serum albumin binding.

The target in series [3] is T2, Human Serum Albumin. The settings on record: literature value of human serum albumin binding; cited from earlier work.
The target of series [4] is T2, Human Serum Albumin. As to the kind of experiment: HSA binding on Chiralpak HSA column. It counts as in vitro ADME.
For series [5] the following is noted: cited from earlier work.
[6] abbreviates: pH 7.4, 68Ga-natF-L, n-octanol/PBS pH 7.4.
Setting [7] is: 68Ga-natF-L, 0.5 nM, 37° C., mean ± SD.
[8] abbreviates: IC50, natF-L (uncomplexed), 1 h, 4° C., mean ± SD.
[9] abbreviates: IC50, natGa-natF-L, 1 h, 4° C., mean ± SD.
Setting [10] is: n-octanol/PBS, pH 7.4, 177Lu-natF-L.
[11] abbreviates: 177Lu-natF-L, 0.5 nM, 37° C., mean ± SD.
Setting [12] is: natLu-natF-L, 1 h, 4° C., mean ± SD, read-out: IC50.
The mark [13] stands for this setting: pH 7.4, 18F-L, n-octanol/PBS pH 7.4.
Where [14] appears, read: 18F-L, 0.5 nM, 37° C., mean ± SD.

T2 sequence (P02768 25-609): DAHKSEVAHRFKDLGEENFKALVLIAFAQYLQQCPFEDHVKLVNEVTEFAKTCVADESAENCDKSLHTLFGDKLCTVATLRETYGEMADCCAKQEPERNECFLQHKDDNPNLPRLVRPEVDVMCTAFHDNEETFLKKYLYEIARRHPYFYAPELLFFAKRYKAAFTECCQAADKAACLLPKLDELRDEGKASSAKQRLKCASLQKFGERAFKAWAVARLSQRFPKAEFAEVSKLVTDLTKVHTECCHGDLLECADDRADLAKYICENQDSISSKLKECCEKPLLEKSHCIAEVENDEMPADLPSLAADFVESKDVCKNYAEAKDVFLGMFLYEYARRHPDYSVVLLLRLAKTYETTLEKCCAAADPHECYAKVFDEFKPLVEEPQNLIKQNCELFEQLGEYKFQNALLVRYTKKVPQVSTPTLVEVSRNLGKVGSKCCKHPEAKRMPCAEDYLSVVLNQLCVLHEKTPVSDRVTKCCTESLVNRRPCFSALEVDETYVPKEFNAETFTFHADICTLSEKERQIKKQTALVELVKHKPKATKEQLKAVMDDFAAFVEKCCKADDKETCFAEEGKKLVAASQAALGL
T1 sequence (Q04609 whole entry): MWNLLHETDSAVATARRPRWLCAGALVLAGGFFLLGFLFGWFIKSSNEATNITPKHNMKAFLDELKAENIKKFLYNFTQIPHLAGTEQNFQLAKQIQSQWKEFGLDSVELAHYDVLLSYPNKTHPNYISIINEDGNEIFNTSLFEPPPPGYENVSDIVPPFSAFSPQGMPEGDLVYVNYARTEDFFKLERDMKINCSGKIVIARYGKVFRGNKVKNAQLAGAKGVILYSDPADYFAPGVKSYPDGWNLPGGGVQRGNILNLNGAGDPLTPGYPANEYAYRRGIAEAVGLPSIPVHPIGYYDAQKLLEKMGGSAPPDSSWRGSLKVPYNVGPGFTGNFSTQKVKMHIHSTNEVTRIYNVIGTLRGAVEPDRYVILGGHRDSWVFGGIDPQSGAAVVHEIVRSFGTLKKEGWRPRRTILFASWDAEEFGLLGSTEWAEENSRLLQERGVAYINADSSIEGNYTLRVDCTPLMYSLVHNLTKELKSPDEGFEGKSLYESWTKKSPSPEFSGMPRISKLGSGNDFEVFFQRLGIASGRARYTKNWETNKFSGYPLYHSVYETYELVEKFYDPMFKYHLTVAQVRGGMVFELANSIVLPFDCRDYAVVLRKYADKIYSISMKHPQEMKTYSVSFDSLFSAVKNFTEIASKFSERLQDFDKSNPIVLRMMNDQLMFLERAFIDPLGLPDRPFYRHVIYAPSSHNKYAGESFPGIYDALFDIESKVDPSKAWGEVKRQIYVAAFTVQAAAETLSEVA

In general, logD refers to lipophilicity at a set pH, counting ionised and neutral species. A high value points to higher lipophilicity. As a reminder, the IC50 is the concentration that inhibits the measured activity by half. In turn, `CC(C)(C)[Si](F)(c1ccc(C(=O)NC[C@@H](NC(=O)CCC(C(=O)O)N2CCN(CC(=O)O)CCN(CC(=O)O)CCN(CC(=O)O)CC2)C(=O)N[C@H](CCCCNC(=O)CCCCCCC(=O)NCCCC[C@H](NC(=O)N[C@@H](CCC(=O)O)C(=O)O)C(=O)O)C(=O)O)cc1)C(C)(C)C` (some centres unmarked) [ligand 5, PSMA-SIFA1] registered a logD in series [1] (setting [6]) of -2.75 ± 0.07. Besides, in the series on LNCaP cells (setting [7]), the Internalization was determined as 33.0 ± 2.1%. Also, the IC50 at PSMA (setting [8]) worked out at 6.4 ± 0.2 nM; at PSMA (setting [9]) it was 7.3 ± 0.2 nM.

Consider `Nc1ccccc1` [Aniline], for which the “Log K HSA” value on Human Serum Albumin [2] is −0.79. Besides, the “Lit. HSA %” value on Human Serum Albumin [3] is 14.06%.

Turning to `Oc1ccccc1` [Phenol], the “Log K HSA” value at Human Serum Albumin [2] is given as −0.59. Further, the “Lit. HSA %” value on Human Serum Albumin [3] was 20.69%.

As for `O=C(O)CC[C@H](NC(=O)N[C@@H](CCCCNC(=O)c1ccc(F)nc1)C(=O)O)C(=O)O` [DCFPyL, reference compound], the Internalization result in the series on LNCaP cells (references) is listed as “DCFPyL 118 ± 5%”.

At Human Serum Albumin [4] (natLu-natF-L), `CC(C)(C)[Si](F)(c1ccc(C(=O)NCC(NC(=O)CN2CCN(CC(=O)O)CCN(CC(=O)O)CCN(CC(=O)O)CC2)C(=O)NC(CCCCNC(=O)CCC(=O)NCCCC(NC(=O)CC[C@H](NC(=O)N[C@@H](CCC(=O)O)C(=O)O)C(=O)O)C(=O)O)C(=O)O)cc1)C(C)(C)C` (some centres unmarked) [ligand 10] yielded an HSA binding of 94.0%. Moreover, the logD in series [1] (setting [10]) is -3.59 ± 0.05. Further, the Internalization in the series on LNCaP cells (setting [11]) is 184.1 ± 16%. Besides, the IC50 on PSMA (setting [12]) came out at 2.8 ± 0.7 nM.

Regarding “SIFA-Asn(AcNH-β-Glc)-PEG-Tyr^3-octreotate”, in series [5], the “log P(ow)” value is reported as 0.96.

As for `CCCN(CCC)S(=O)(=O)c1ccc(C(=O)O)cc1` [Probenecid], the “Lit. HSA %” value at Human Serum Albumin [3] was 95.00%.

As for `CC(C)(C)[Si](F)(c1ccc(C(=O)NC[C@@H](C(=O)N[C@H](CCCCNC(=O)CCC(=O)NCCC[C@@H](NC(=O)CC[C@H](NC(=O)N[C@@H](CCC(=O)O)C(=O)O)C(=O)O)C(=O)O)C(=O)O)n2cc(CNC(=O)CCP(=O)(O)CN3CCN(CP(=O)(O)CCC(=O)O)CCN(CP(=O)(O)CCC(=O)O)CC3)nn2)cc1)C(C)(C)C` [ligand 9, PSMA-SIFA5], the HSA binding at Human Serum Albumin [4] (natGa-natF-L) is on record as 95.1%. Moreover, the log distribution coefficient (logD) in series [1] (setting [13]) was -2.23 ± 0.07; in series [1] (setting [6]), -3.26 ± 0.06. Also, the Internalization is 211.6 ± 5.3% in the series on LNCaP cells (setting [14]) and 176.9 ± 11.7% in the series with LNCaP cells (setting [7]). Moreover, the IC50 on PSMA (setting [8]) is 4.3 ± 0.2 nM; on PSMA (setting [9]) it was 4.5 ± 0.3 nM.

In the case of `CC(C)(C)[Si](F)(c1ccc(C(=O)N[C@H](CNC(=O)CCC(C(=O)O)N2CCN(CC(=O)O)CCN(CC(=O)O)CCN(CC(=O)O)CC2)C(=O)N[C@H](CCCCNC(=O)CCC(=O)NCCC[C@@H](NC(=O)CC[C@H](NC(=O)N[C@@H](CCC(=O)O)C(=O)O)C(=O)O)C(=O)O)C(=O)O)cc1)C(C)(C)C` (some centres unmarked) [ligand 8, PSMA-SIFA4], the results for the HSA binding at Human Serum Albumin [4] (natGa-natF-L) and at Human Serum Albumin [4] (natLu-natF-L) were 96.5% and 97.7%, respectively. Moreover, the logD in series [1] (setting [13]) was -2.25 ± 0.07; in series [1] (setting [6]) it was -2.59 ± 0.04; in series [1] (pH 7.4, 177Lu-natF-L, n-octanol/PBS pH 7.4), -3.75 ± 0.06. The Internalization in the series with LNCaP cells (setting [14]) is 130.3 ± 5.5%; in the series with LNCaP cells (setting [7]), 98.2 ± 12.4%; in the series with LNCaP cells (setting [11]), 165.9 ± 8.5%. The IC50 is 2.5 ± 0.2 nM on PSMA (setting [8]); 3.8 ± 0.7 nM at PSMA (setting [9]); 3 ± 0.2 nM on PSMA (IC50, natLu-natF-L, 1 h, 4° C., mean ± SD).

Take PSMA-1007 [reference compound]: the Internalization entry in the series with LNCaP cells (references) is reported as “PSMA-1007 118 ± 4%”. Moreover, at PSMA (references, read-out: IC50), the half-inhibitory concentration (IC50) is 4.2 nM.

In the case of `CC(C)(C)[Si](F)(c1ccc(C(=O)NC(CNC(=O)CN2CCN(CC(=O)O)CCN(CC(=O)O)CCN(CC(=O)O)CC2)C(=O)NC(CCCCNC(=O)CCC(=O)NCCCC(NC(=O)CC[C@H](NC(=O)N[C@@H](CCC(=O)O)C(=O)O)C(=O)O)C(=O)O)C(=O)O)cc1)C(C)(C)C` (some centres unmarked) [ligand 11], the HSA binding on Human Serum Albumin [4] (natLu-natF-L) is on record as 92.4%. In series [1] (setting [10]), this compound showed a logD of -3.62 ± 0.06. The Internalization with LNCaP cells (setting [11]) amounted to 134.5 ± 18.5%. The IC50 at PSMA (setting [12]) was determined as 4.8 ± 0.7 nM.

For the compound SIFA-Asn(AcNH-β-Glc)-Tyr^3-octreotate, in series [5], the “log P(ow)” value is recorded as 1.23.

Take `O=C(O)c1ccccc1` [Benzoic Acid]: on Human Serum Albumin [3], the “Lit. HSA %” value is 34.27%.

For `COc1ccc(Cl)cc1C(=O)NCCc1ccc(S(=O)(=O)NC(=O)NC2CCCCC2)cc1` [Glibenclamide], the “Log K HSA” value at Human Serum Albumin [2] amounted to 1.69. The “Lit. HSA %” value at Human Serum Albumin [3] is recorded as 99.00%.

On to `CC(C)(C)[Si](F)(c1ccc(C(=O)NC[C@@H](C(=O)N[C@H](CCCCNC(=O)CCCCCCC(=O)NCCCC[C@H](NC(=O)N[C@@H](CCC(=O)O)C(=O)O)C(=O)O)C(=O)O)n2cc(CNC(=O)CCP(=O)(O)CN3CCN(CP(=O)(O)CCC(=O)O)CCN(CP(=O)(O)CCC(=O)O)CC3)nn2)cc1)C(C)(C)C` [ligand 6, PSMA-SIFA2], for which, in series [1] (setting [6]), the logD is -3 ± 0.09. Also, the Internalization in the series with LNCaP cells (setting [7]) came out at 43.0 ± 3.4%. The IC50 came to 8.5 ± 1.7 nM on PSMA (setting [8]) and 10.8 ± 2.5 nM on PSMA (setting [9]).
